System: rainbow trout
Test: Cannulation experiment: plasma cortisol response to oral ACTH with gut modulators
Assay type: in vivo, rainbow trout (Oncorhynchus mykiss)
Details: for Cumulative plasma cortisol: over a 360 min period, oral ACTH 0.5 mg kg^−1
Description: Rainbow trout of a weight range of 750-1700 g (Spring Valley Trout Farms, Langley, BC) were immunized against firunculosis and vibriosis by injecting them with 0.2 ml fish^−1 of a 1:1 ratio of VIBRIOGEN and FUROGEN (Microtek, BC, Canada), and stocked in 4,000 liter tanks. The tanks were supplied with well water at a temperature of 10±0.5° C. at about 10 exchanges per day. After 10 days fish were transferred gradually over a period of another 10 days to full strength seawater (25-29 ppt). The temperature of the seawater ranged between 7-9° C. according to season. Only following their acclimation to seawater, after another 10 days, were fish used. […] Fish were fed daily about 1% BW of a 42% protein and 33% crude fat diet (Moore-Clark Co., Canada).
Fish were kept individually in 200 1 fiberglass tub aquaria. Fish in the tanks were confined to one half of the tank with a partition. […] In addition, fish were encouraged to swim against a current, which was generated by a pipe which directed the water inflow to the surface of the tank. The experimental fish were not fed within a given experiment, which normally lasted for 5 days, and were force fed once a week with a 0.5% body weight of a Moore Clark “Royal extrude salmon feed” (42% C.P., 33% C.F.), which was mixed with water at a 1:1 ratio to give a paste which could be intubated into the fish.
Fish were anesthetized in two stages. They were first sedated in metomidate hydrochloride (Marinil, Wildlife laboratories Inc. CO, USA) in a 250 ppb solution in the 4000 liter holding tanks with the water supply turned off. Fish were netted out of the 4,000 liter tanks into 15 liter of well aerated 100 ppm MS222 (3 amino benzoic acid ethyl ester; SIGMA) solution in SW for a deeper anesthesia. Fish were sedated until active gill ventilation ceased at which point they were taken out of the water, weighed and cannulated.
Samples were taken of blood to determine plasma cortisol or hCG. Blood sampling was done in two stages: First a volume equal to the dead volume of the cannula (˜250 μl) was withdrawn and discarded, this was followed by sampling 250-500 μl blood, depending on the RIA assay (cortisol or hCG), into a 1 ml EDTA-Aprotinin coated syringe. The blood samples were kept in 500 μl Eppendorf tubes on ice for up to two hours within which time the tubes were centrifuged at 13,000 rpm for 5 min. The supernatant plasma was removed by disposable Pasteur pipettes into Eppendorff tubes and stored at −40° C. until the RIA. When blood samples were taken for hCG analysis they were centrifuged for 5 minutes at 3750 rpm at 5° C.
To measure plasma cortisol, 20 μl of plasma was applied to a kit by INCSTAR (Minnesota, USA). No significant crossreactivity of this kit was found with dexamethasone (9α-Fluoro-16α-Methyl Predindone, SIGMA), while it crossreacted with cortisol (hydrocortisone; SIGMA), which was used in the clearance rate experiments. Porcine ACTH (SIGMA) which was used for the intubation study elicited a cortisol response in fish but could not be detected reliably by the cortisol RIA. Plasma hCG was also determined based on a RIA (INCSTAR) kit and of the orally applied hCG based on Van der Kraak et al. (1984). ACTH stimulates cortisol production in the interrenal cells of the kidney.

Compound: C[C@H](CCC(=O)O)[C@H]1CC[C@H]2[C@@H]3CC[C@@H]4C[C@H](O)CC[C@]4(C)[C@H]3C[C@H](O)[C@]12C [DOC, deoxycholic acid]
- cumulative response of cortisol to plasma ACTH (DOC molar concentration 0.0167 in the intubation medium (PBS)): 7042±3243 ng cortisol kg^−1

Compound: O=c1[nH]c2ccccc2n1CCCN1CCC(n2c(=O)[nH]c3cc(Cl)ccc32)CC1 [DOM, domperidone]
- gut penetrability to ACTH as reflected by plasma cortisol (change relative to no modulator): quadrupled
- Cumulative plasma cortisol (DOM 4.5 mg kg^−1): 4329 ng/kg

Compound: ACTH
- cumulative response of cortisol to plasma ACTH (DOC molar concentration 0 in the intubation medium (PBS)): 1454±597 ng cortisol kg^−1
- Cumulative plasma cortisol (DOM 0 mg kg^−1): 1086 ng/kg

— patent US8865197B2, “Food formulation for aquatic animals with integrated targeted delivery of bioactive agents” (Israel Oceanographic and Limnological Research Ltd., priority 2005, dated 2014)
